In patent US20180168151A1, “COMPOSITION AND SYSTEM FOR ATTRACTING LEPIDOPTEROUS INSECTS” (The New Zealand Institute for Plant and Food Research …, priority 2015, published 2018):

Experiments:
OBLR [1] = assay: Example 1B: individual compounds as attractants, baited traps; type: in vivo, Choristoneura rosaceana; settings: tested individually, 10 mg
Procedure: (§1) This experiment was conducted from 28 Nov. to 12 Dec. 2013 for LBAM and 3-10 Jun. 2015 for ESBM and OBLR to investigate the biological activity of the individual volatile organic compounds. Lures of benzyl alcohol, benzyl nitrile, indole, 2-phenyethanol, (E)-nerolidol, and 0.3 mL acetic acid were made by dispensing 10 mg of each compound on a Boomerang regular cellulose acetate filter (7.5 mm diameter×10 mm, Moss Packaging Co. Ltd., Wellington, New Zealand) inside a permeable polyethylene bag (100 μm wall thickness, 20 mm×20 mm, Masterton, New Zealand) that was then heat-sealed. A trap with a lure without chemical was used as negative control.

LBAM = assay: as above; type: in vivo, Epiphyas postvittana; settings: tested individually, 10 mg (acetic acid 0.3 mL); no significant differences among treatments
Procedure: as §1

TLLR = assay: Example 5: binary and ternary blends, baited traps; type: in vivo, Pandemis limtata; settings: 100 mg 2-phenylethanol added to 100 mg benzyl nitrile and 3 mL acetic acid
Procedure: (§2) This trial was conducted in a mixed variety apple orchard in Summerland, British Columbia, Canada from 28 Jul. to 11 Aug. 2014 targeting ESBM and threelined leaf rollers (TLLR). […] White delta traps (Trece Inc) were used.

ESBM [2] = assay: Example 5: binary and ternary blends, baited traps; type: in vivo, Spilonota ocellana; settings: 100 mg 2-phenylethanol added to 100 mg benzyl nitrile and 3 mL acetic acid
Procedure: as §2

Lepidopterous insects = assay: Summary of field attractant trials (description); type: in vivo; settings: other compounds released by infested apple seedlings; results were inconsistent
Procedure: In the trials described in the Examples, the compounds of formula I were placed inside a permeable polyethylene bag. The acetic acid was applied to a cotton ball inside a 5 ml polyethylene vial containing a 1 mm hole. The bag and vial were placed in the centre of a sticky trap.

ESBM [3] = system: ESBM
Procedure: (§3) The variance of mean captures obtained with each compound or each blend of compounds was stabilized using the √(x+1) transformation of counts and the significance of treatment effects tested using ANOVA.
(§4) This experiment was conducted between the 11th to the 22 Jul. 2014 in a mixed variety organic apple orchard in Summerland, British Columbia, Canada. Large white delta traps (Trece Inc) were used. The loadings of blends were as follow: 1) 100 mg benzyl nitrile and 3 mL acetic acid; 2) 100 mg of 2-phenyethanol and 3 mL acetic acid; 3) 100 mg benzyl alcohol and 3 mL acetic acid. Traps baited with 3 mL of acetic acid was used to quantify the role of acetic acid. A trap with a blank lure was used as negative control. Traps were baited with the compound of formula I and placed in 5 rows, with five replicates of each treatment in a randomized block design. Traps were positioned 1.5 m above the ground in each trap tree, and were spaced 20 m apart in each row. Each treatment was assigned randomly to a trap tree within each row of trees. The polythene sachet and the acetic acid vial were attached to the side of the traps using Velcro tape. Sticky bases were checked weekly during the experimental period.
(§5) This experiment was conducted between 3 Jul. to 17 Jul. 2014 in a mixed variety organic apple orchard in Summerland, British Columbia, Canada using the same experimental protocol as Example 4. The trial targeted both ESBM and OBLR. The relative attractiveness of the following treatments was investigated: 1) 100 mg benzyl nitrile alone; 2) 3 mL acetic acid alone; and 3) 100 mg of benzyl nitrile and 3 mL acetic acid. A trap with a blank lure was used as negative control.

OBLR [4] = system: OBLR
Procedure: as §3, §4, §5

ESBM [5] = assay: Example 1B: individual compounds as attractants, baited traps; type: in vivo, Spilonota ocellana; settings: tested individually, 10 mg (acetic acid 0.3 mL); no significant differences among treatments
Procedure: as §1

ESBM [6] = settings: for numbers of ESBM males and females attracted, each alone, compared with each other: 10 mg benzyl nitrile alone, 0.3 mL acetic acid alone
Procedure: as §3
(§6) This experiment was conducted from 21 Jun. to 2 Jul. 2015 only for ESBM and OBLR in a mixed varieties apple orchard in Summerland, British Columbia, Canada (49°34′50.02″N, 119°38′16.57″W). The relative attractiveness of the following treatments was investigated: 1) 10 mg benzyl nitrile alone; 2) 0.3 mL acetic acid alone; and 3) 10 mg benzyl nitrile+0.3 mL acetic acid. A trap with a blank lure was used as negative control.

OBLR [7] = settings: for numbers of OBLR males and females attracted, each alone, compared with each other: 10 mg benzyl nitrile alone, 0.3 mL acetic acid alone
Procedure: as §3, §6

ESBM [8] = assay: Example 7A: various doses of benzyl nitrile with constant acetic acid, baited traps; type: in vivo, Spilonota ocellana
Procedure: Large white delta traps (Trece Inc) were used. […] Sticky bases were checked weekly during the experimental period.
This experiment was conducted between 8 Jul. to 22 Jul. […] This trial targeted ESBM. The relative attractiveness of three binary blends containing constant amount of acetic acid (3 mL) plus varying amounts of benzyl nitrile (1, 10, and 100 mg) was investigated. […] Experimental protocol was similar to Example 4.

[9] = 100 mg benzyl nitrile added to 3 mL acetic acid
[10] = binary blend containing 1 mg benzyl nitrile, 3 mL acetic acid
[11] = binary blend with constant 3 mL acetic acid
[12] = 10 mg benzyl nitrile added to 0.3 mL acetic acid, P<0.05

In the case of OCCc1ccccc1 [2-phenylethanol], the “attraction of OBLR into traps” value (OBLR [1]) is reported as “attracted males and females”, the “attraction of adult LBAM into traps” value (LBAM) is reported as “attracted males and females into the traps” and the “change in number of TLLR males and females on addition to binary blend benzyl nitrile/acetic acid” value (TLLR) is reported as “did not result in significant increase”. The “change in number of ESBM males and females on addition to binary blend benzyl nitrile/acetic acid” value (ESBM [2]) was “did not result in significant increase”.

With C=CC(C)(O)CC/C=C(\C)CCC=C(C)C (centres unmarked) [(E)-nerolidol] the “attractant activity against some insects” value (Lepidopterous insects) was “some attractant activity”.

For CC(=O)O [acetic acid], the “ESBM males and females attracted, compared with traps baited with benzyl nitrile alone” value (ESBM [3]; 3 mL acetic acid alone) was “significantly attracted more males and females”, the “OBLR males and females attracted, compared with traps baited with benzyl nitrile alone” value (OBLR [4]; 3 mL acetic acid alone) was “significantly attracted more males and females” and the “attraction of ESBM into traps” value (ESBM [5]) was “attracted males and females into the traps”. For the same molecule, the “attraction of adult LBAM into traps” value (LBAM) was “attracted males and females into the traps”, the “numbers of ESBM males and females attracted, each alone, compared with each other” value (ESBM [6]) was “attracted similar numbers” and the “numbers of OBLR males and females attracted, each alone, compared with each other” value (OBLR [7]) was “attracted similar numbers”.

OCc1ccccc1 [benzyl alcohol] was tested, and the “attraction of adult LBAM into traps” value (LBAM) was “attracted males and females into the traps”.

With N#CCc1ccccc1 [benzyl nitrile] the “fold increase in number of ESBM females caught on addition to acetic acid” value (ESBM [3]; [9]) was 3 fold, the “fold increase in number of ESBM males caught on addition to acetic acid” value (ESBM [3]; [9]) was 4 fold and the “attractiveness to adults ESBM, compound alone” value (ESBM [3]; 100 mg benzyl nitrile alone) was “not attractive”. The “fold increase in number of OBLR females caught on addition to acetic acid” value (OBLR [4]; [9]) was 9 fold, the “fold increase in number of OBLR males caught on addition to acetic acid” value (OBLR [4]; [9]) was 2 fold and the “attractiveness to adults OBLR, compound alone” value (OBLR [4]; 100 mg benzyl nitrile alone) was “not attractive”. For the same molecule, the “attraction of ESBM into traps” value (ESBM [5]) was “attracted males and females into the traps”, the “ESBM females attracted compared with acetic acid alone” value (ESBM [8]; [10]) was “significantly more females” and the “response of ESBM males compared with acetic acid alone” value (ESBM [8]; [10]) was “not significant”. For the same molecule, the “change in number of ESBM males and females caught on increasing dose from 1 mg to 10 mg” value (ESBM [8]; [11]) was “significant increase”, the “change in number of ESBM males and females caught on increasing dose from 10 mg to 100 mg” value (ESBM [8]; [11]) was “did not result in a significant increase” and the “attraction of adult LBAM into traps” value (LBAM) was “attracted males and females into the traps”. For the same molecule, the “change in number of ESBM males and females caught on addition to acetic acid” value (ESBM [6]; [12]) was “significant increases”, the “numbers of ESBM males and females attracted, each alone, compared with each other” value (ESBM [6]) was “attracted similar numbers” and the “change in number of OBLR males and females caught on addition to acetic acid” value (OBLR [7]; [12]) was “significant increases”. The “numbers of OBLR males and females attracted, each alone, compared with each other” value (OBLR [7]) was “attracted similar numbers”.

In the case of c1ccc2[nH]ccc2c1 [indole], the “attractant activity against some insects” value (Lepidopterous insects) is reported as “some attractant activity”.
